# Measurements published in patent US9115142B2, “Heterocycle-substituted piperazino-dihydrothienopyrimidines” (Boehringer Ingelheim International GmbH, priority 2007, dated 2015).
# Where a name gives a salt, the structure may show the parent alone.
# Molecular target: PDE4B (Homo sapiens, UniProt Q07343)
# Assay: Scintillation Proximity Assay (SPA) of PDE4B enzymatic activity ([H3]-cAMP cleavage)
# Type: biochemical
# Conditions: test substance 1 μM; one-hour incubation with [H3]-cAMP and PDE4B at 30° C.
# Method: The Scintillation Proximity Assay (SPA) (GE Healthcare, No. TRKQ7090) was carried out by using the different affinities of cyclic 3″-5″-adenosinemonophosphate (cAMP, low affinity) and linear 5″-adenosinemonophosphate (AMP, high affinity) for yttrium silicate scintillator beads. The cAMP specific phosphodiesterase (PDE) PDE4B cleaves the 3″-phosphoester bond of tritium-labelled [H3]-cAMP to form [H3]-5″-AMP. This [H3]-AMP accumulates on the scintillator beads because of its higher affinity for them and causes scintillation events (flashes of light) which are measured in a Wallac Microbeta Scintillation Counter.
# The experiment starts with a one-hour incubation of [H3]-cAMP with the PDE4B enzyme in assay buffer at 30° C., in each case once with the Example substance to be tested (in a concentration of 1 μM) and once without the Example substance to be tested.
# After this incubation, the reaction is stopped by the addition of the beads. The beads have an opportunity to settle in the next 45 minutes, then the measurement is carried out in the Scintillation Counter. If the substance is capable of inhibiting the enzymatic activity of the PDE4B, less [H3]-AMP is produced during the incubation phase and fewer scintillation events can be measured.
# Chain of PDE4B (Q07343 whole entry, species assumed): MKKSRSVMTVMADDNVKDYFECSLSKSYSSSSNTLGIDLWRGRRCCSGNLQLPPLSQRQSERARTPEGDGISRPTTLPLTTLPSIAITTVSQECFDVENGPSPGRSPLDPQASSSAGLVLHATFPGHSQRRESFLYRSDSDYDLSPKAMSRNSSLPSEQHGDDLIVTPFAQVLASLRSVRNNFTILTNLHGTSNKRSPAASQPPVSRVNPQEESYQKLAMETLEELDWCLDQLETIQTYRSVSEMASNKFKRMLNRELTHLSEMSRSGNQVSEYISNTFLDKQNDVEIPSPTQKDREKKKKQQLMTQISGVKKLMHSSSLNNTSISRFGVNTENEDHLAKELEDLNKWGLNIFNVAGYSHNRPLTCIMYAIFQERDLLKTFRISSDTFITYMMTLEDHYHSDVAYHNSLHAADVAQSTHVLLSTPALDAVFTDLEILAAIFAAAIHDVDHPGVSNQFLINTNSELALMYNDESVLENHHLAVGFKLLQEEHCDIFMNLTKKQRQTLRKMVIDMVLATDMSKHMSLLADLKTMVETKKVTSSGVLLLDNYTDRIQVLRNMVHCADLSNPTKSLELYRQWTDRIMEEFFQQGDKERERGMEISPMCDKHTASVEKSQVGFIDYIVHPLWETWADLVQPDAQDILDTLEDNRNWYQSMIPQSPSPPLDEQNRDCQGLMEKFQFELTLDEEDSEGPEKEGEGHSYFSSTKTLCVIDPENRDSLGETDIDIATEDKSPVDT
row,Structure (SMILES),inhibition at 1 µM [%]
1,"[O-][S+]1CCc2nc(N3CCN(c4nccs4)CC3)nc(Nc3cccc(F)c3)c21 (stereo not shown) [Example 1, (3-fluorophenyl)-[5-oxo-2-(4-thiazol-2-yl-piperazin-1-yl)-6,7-dihydro-5H-5λ^4-thieno[3,2-d]pyrimidin-4-yl]-amine]",94
2,"CC(C)[C@H](CO)Nc1nc(N2CCN(c3nccs3)CC2)nc2c1[S+]([O-])CC2 (stereo partly drawn) [Example 2, (R)-3-methyl-2-[5-oxo-2-(4-thiazol-2-yl-piperazin-1-yl)-6,7-dihydro-5H-5λ^4-thieno[3,2-d]pyrimidin-4-ylamino]-butan-1-ol]",90
3,"[O-][S+]1CCc2nc(N3CCN(c4nc5ccccc5o4)CC3)nc(Nc3cccc(F)c3)c21 (stereo not shown) [Example 3, [2-(4-benzoxazol-2-yl-piperazin-1-yl)-5-oxo-6,7-dihydro-5H-5λ^4-thieno[3,2-d]pyrimidin-4-yl]-(3-fluorophenyl)-amine]",95
4,"[O-][S+]1CCc2nc(N3CCN(c4nc5ccccc5o4)CC3)nc(NC3CCOCC3)c21 (stereo not shown) [Example 5, [2-(4-benzoxazol-2-yl-piperazin-1-yl)-5-oxo-6,7-dihydro-5H-5λ^4-thieno[3,2-d]pyrimidin-4-yl]-(tetrahydropyran-4-yl)-amine]",96
5,"CC(C)[C@H](CO)Nc1nc(N2CCN(c3ccc(Cl)nn3)CC2)nc2c1[S+]([O-])CC2 (stereo partly drawn) [Example 6, (R)-2-{2-[4-(6-chlorpyridazin-3-yl)-piperazin-1-yl]-5-oxo-6,7-dihydro-5H-5λ^4-thieno[3,2-d]pyrimidin-4-ylamino}-3-methylbutan-1-ol]",93
6,"[O-][S+]1CCc2nc(N3CCN(c4ccc(Cl)nn4)CC3)nc(Nc3cccc(F)c3)c21 (stereo not shown) [Example 7, {2-[4-(6-chlorpyridazin-3-yl)-piperazin-1-yl]-5-oxo-6,7-dihydro-5H-5λ^4-thieno[3,2-d]pyrimidin-4-yl}-(3-fluorophenyl)-amine]",95
7,"CC(C)[C@H](CO)Nc1nc(N2CCN(c3nc4ccccc4o3)CC2)nc2c1[S+]([O-])CC2 (stereo partly drawn) [Example 10, (R)-2-[2-(4-benzoxazol-2-yl-piperazin-1-yl)-5-oxo-6,7-dihydro-5H-5λ^4-thieno[3,2-d]pyrimidin-4-ylamino]-3-methylbutan-1-ol]",94
8,"[O-][S+]1CCc2nc(N3CCN(c4ccc(Cl)cn4)CC3)nc(NC3(CO)CC3)c21 (stereo not shown) [Example 13, (1-{2-[4-(5-Chloropyridin-2-yl)-piperazin-1-yl]-5-oxo-6,7-dihydro-5H-5λ^4-thieno[3,2-d]pyrimidin-4-ylamino}-cyclopropyl)-methanol]",95
9,"[O-][S+]1CCc2nc(N3CCN(c4ccc(Cl)cn4)CC3)nc(NC3CCOCC3)c21 (stereo not shown) [Example 14, {2-[4-(5-chloropyridin-2-yl)-piperazin-1-yl]-5-oxo-6,7-dihydro-5H-5λ^4-thieno[3,2-d]pyrimidin-4-yl}-(tetrahydropyran-4-yl)-amine]",95
10,"CN(C)c1nnccc1N1CCN(c2nc3c(c(Nc4cccc(F)c4)n2)[S+]([O-])CC3)CC1 (stereo not shown) [Example 15, {2-[4-(3-dimethylaminopyridazin-4-yl)-piperazin-1-yl]-5-oxo-6,7-dihydro-5H-5λ^4-thieno[3,2-d]pyrimidin-4-yl}-(3-fluorophenyl)-amine]",97
11,"[O-][S+]1CCc2nc(N3CCN(c4cc(Cl)nnc4O)CC3)nc(Nc3cccc(F)c3)c21 (stereo not shown) [Example 16, 6-chloro-4-{4-[4-(3-fluorophenylamino)-5-oxo-6,7-dihydro-5H-5λ^4-thieno[3,2-d]pyrimidin-2-yl]-piperazin-1-yl}-pyridazin-3-ol]",95
12,"CCOCCOc1ccc(N2CCN(c3nc4c(c(Nc5cccc(F)c5)n3)[S+]([O-])CC4)CC2)nn1 (stereo not shown) [Example 17, (2-{4-[6-(2-ethoxyethoxy)-pyridazin-3-yl]-piperazin-1-yl}-5-oxo-6,7-dihydro-5H-5λ^4-thieno[3,2-d]pyrimidin-4-yl)-(3-fluorophenyl)-amine]",97
13,"[O-][S+]1CCc2nc(N3CCN(c4ccnnc4)CC3)nc(Nc3cccc(F)c3)c21 (stereo not shown) [Example 18, (3-fluorophenyl)-[5-oxo-2-(4-pyridazin-4-yl-piperazin-1-yl) 6,7-dihydro-5H-5λ^4-thieno[3,2-d]pyrimidin-4-yl]-amine]",96
14,"COc1cccc2c1nc(N1CCN(c3nc4c(c(N[C@@H](CO)C(C)C)n3)[S+]([O-])CC4)CC1)n2C (stereo partly drawn) [Example 23, (R)-2-{2-[4-(4-methoxy-1-methyl-1H-benzimidazol-2-yl)-piperazin-1-yl]-5-oxo-6,7-dihydro-5H-5λ^4-thieno[3,2-d]pyrimidin-4-ylamino}-3-methylbutan-1-ol]",83
15,"CCN1CCc2ncc(N3CCN(c4nc5c(c(N[C@@H](CO)C(C)C)n4)[S+]([O-])CC5)CC3)nc2CC1 (stereo partly drawn) [Example 24, (R)-2-{2-[4-(7-ethyl-6,7,8,9-tetrahydro-5H-pyrazino[2,3-d]azepin-2-yl)-piperazin-1-yl]-5-oxo-6,7-dihydro-5H-5^4-thieno[3,2-d]pyrimidin-4-ylamino}-3-methylbutan-1-ol]",94
16,"CC(C)[C@H](CO)Nc1nc(N2CCN(c3ccncn3)CC2)nc2c1[S+]([O-])CC2 (stereo partly drawn) [Example 28, (R)-3-methyl-2-[5-oxo-2-(4-pyrimidin-4-yl-piperazin-1-yl)-6,7-dihydro-5H-5λ^4-thieno[3,2-d]pyrimidin-4-ylamino]-butan-1-ol trifluoroacetate]",94
17,"CC(C)[C@H](CO)Nc1nc(N2CCN(c3ccnc(O)c3)CC2)nc2c1[S+]([O-])CC2 (stereo partly drawn) [Example 29, 4-{4-[4((R)-1-hydroxymethyl-2-methylpropylamino)-5-oxo-6,7-dihydro-5H-5λ^4-thieno[3,2-d]pyrimidin-2-yl]-piperazin-1-yl}-pyridin-2-ol]",94
18,"CC(C)[C@H](CO)Nc1nc(N2CCN(c3ccncc3)CC2)nc2c1[S+]([O-])CC2 (stereo partly drawn) [Example 32, (R)-3-methyl-2-[5-oxo-2-(4-pyridin-4-yl-piperazin-1-yl)-6,7-dihydro-5H-5λ^4-thieno[3,2-d]pyrimidin-4-ylamino]-butan-1-ol trifluoroacetate]",77
19,"CC(C)[C@H](CO)Nc1nc(N2CCN(c3ccnnc3N(C)C)CC2)nc2c1[S+]([O-])CC2 (stereo partly drawn) [Example 36, (R)-2-{2-[4-(3-dimethylaminopyridazin-4-yl)-piperazin-1-yl]-5-oxo-6,7-dihydro-5H-5λ^4-thieno[3,2-d]pyrimidin-4-ylamino}-3-methylbutan-1-ol trifluoroacetate]",94
20,CC(C)[C@H](CO)Nc1nc(N2CCN(c3cc(Cl)nnc3O)CC2)nc2c1[S+]([O-])CC2 (stereo partly shown) [Example 37],90
21,"CCOCCOc1ccc(N2CCN(c3nc4c(c(N[C@@H](CO)C(C)C)n3)[S+]([O-])CC4)CC2)nn1 (stereo partly drawn) [Example 38, (R)-2-(2-{4-[6-(2-ethoxyethoxy)-pyridazin-3-yl]-piperazin-1-yl}-5-oxo-6,7-dihydro-5H-5λ^4-thieno[3,2-d]pyrimidin-4-ylamino)-3-methylbutan-1-ol trifluoroacetate]",96
22,"CC(C)[C@H](CO)Nc1nc(N2CCN(c3ccnnc3)CC2)nc2c1[S+]([O-])CC2 (stereo partly drawn) [Example 39, (R)-3-methyl-2-[5-oxo-2-(4-pyridazin-4-yl-piperazin-1-yl)-6,7-dihydro-5H-5λ^4-thieno[3,2-d]pyrimidin-4-ylamino]-butan-1-ol trifluoroacetate]",92
